Results reported in article PMC6385122, “Design and Synthesis of Arylamidine Derivatives as Serotonin/Norepinephrine Dual Reuptake Inhibitors” (Molecules, 2019).
Structures can show the parent of a compound that is named as a salt.

Key:
[1] = molecular target: T1, NE reuptake (NE transporter) (Rattus norvegicus, UniProt Q63380); test: Inhibition of NE reuptake in rat brain synaptosome (3H-NE uptake); format: biochemical; conditions: 10 μM, read-out: NE reuptake percent inhibition
T1 construct: from tissue; host or cells: Wistar rat brain (procerebrum; crude synaptosomal supernatant)
T1 sequence (Q63380 1-617): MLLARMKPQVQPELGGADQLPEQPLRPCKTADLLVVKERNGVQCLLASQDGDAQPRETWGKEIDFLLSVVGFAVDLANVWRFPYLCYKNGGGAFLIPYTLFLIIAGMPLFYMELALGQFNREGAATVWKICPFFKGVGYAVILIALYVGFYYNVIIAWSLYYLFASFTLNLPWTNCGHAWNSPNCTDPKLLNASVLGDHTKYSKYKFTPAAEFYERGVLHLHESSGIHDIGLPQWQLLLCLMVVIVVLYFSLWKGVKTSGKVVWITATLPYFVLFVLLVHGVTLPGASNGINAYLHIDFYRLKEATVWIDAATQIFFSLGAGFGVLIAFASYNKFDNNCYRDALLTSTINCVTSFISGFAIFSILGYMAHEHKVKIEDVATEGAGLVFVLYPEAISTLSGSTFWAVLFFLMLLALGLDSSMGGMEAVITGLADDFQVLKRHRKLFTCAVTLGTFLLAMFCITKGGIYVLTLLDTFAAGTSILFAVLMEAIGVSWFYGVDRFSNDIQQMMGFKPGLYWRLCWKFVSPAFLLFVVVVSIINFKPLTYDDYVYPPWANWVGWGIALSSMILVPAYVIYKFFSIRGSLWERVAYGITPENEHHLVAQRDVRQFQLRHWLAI
Experimental: (§1) All the target compounds were evaluated for their inhibitory activity against the reuptake of 5-HT and NE at the cellular level. Rat brain tissue was used for the uptake test, which included ^3H-5-HT and ^3H-NE [15]. 1-[7,8-^3H]-Noradrenaline and 5-hydroxy-[^3H]-tryptamine trifluoroacetate were obtained from Amersham Corporation.
(§2) Adult male Wistar rats were used. Animals were killed by decapitation and the whole brain, with the exception of the brainstem and cerebellum, was quickly removed. The procerebrum region was prepared, weighed, and homogenized in 10 volumes of ice-cold 0.32 mol/L sucrose solution using a glass homogenizer. The homogenate was centrifuged at 1000× g and 4 °C for 10 min. The supernatant was decanted and used for the uptake experiments. […] For each assay, three tubes were incubated with the vehicle (20 µL) at 0 °C in an ice bath. After incubation, the tubes were immediately filtered with a cell harvester. The fiberglass filter membrane was washed three times with ice-cold saline, placed in a scintillation vial, and counted in liquid scintillation cocktail (4 mL). Active uptake was the difference between the counts per minute at 37 and 0 °C. The percent inhibition at each drug concentration was the mean of three measurements.

[2] = molecular target: T2, 5-HT reuptake (5-HT transporter) (Rattus norvegicus, UniProt P31652); test: Inhibition of 5-HT reuptake in rat brain synaptosome (3H-5-HT uptake); format: biochemical; conditions: 10 μM, read-out: 5-HT reuptake percent inhibition
T2 construct: from tissue; host or cells: Wistar rat brain (procerebrum; crude synaptosomal supernatant)
T2 sequence (P31652 whole entry): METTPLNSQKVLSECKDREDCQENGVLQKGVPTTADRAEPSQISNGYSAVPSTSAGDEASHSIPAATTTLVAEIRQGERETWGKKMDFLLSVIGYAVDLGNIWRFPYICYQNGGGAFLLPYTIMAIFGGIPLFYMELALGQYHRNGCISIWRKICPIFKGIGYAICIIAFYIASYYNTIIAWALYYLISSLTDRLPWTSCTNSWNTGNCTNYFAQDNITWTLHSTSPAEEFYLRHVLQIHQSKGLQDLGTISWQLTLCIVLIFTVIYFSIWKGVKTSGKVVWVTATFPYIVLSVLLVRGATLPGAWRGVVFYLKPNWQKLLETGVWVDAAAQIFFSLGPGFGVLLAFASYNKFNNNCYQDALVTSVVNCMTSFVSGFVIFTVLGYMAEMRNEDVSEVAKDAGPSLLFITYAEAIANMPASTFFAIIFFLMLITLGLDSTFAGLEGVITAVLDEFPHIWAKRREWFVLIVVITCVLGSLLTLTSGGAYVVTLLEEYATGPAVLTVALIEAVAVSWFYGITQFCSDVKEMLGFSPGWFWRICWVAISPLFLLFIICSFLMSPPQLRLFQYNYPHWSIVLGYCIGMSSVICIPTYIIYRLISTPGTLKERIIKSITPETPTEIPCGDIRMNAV
Experimental: as §1, §2

| SMILES | melting point [°C] | inhibition at 10 µM [1] [%] | inhibition at 10 µM [2] [%] |
| --- | --- | --- | --- |
| O=[N+]([O-])c1ccc(/C(=N\Cc2ccccc2)N2CCNCC2)cc1 (as salt: hydrochloride) [Compound I-2, (E)-N-((4-Nitrophenyl)(piperazin-1-yl)methylene)-1-phenylmethanaminehydrochloride] | 230 to 231 |  |  |
| Clc1ccccc1/C(=N\Cc1ccccc1)N1CCNCC1 (as salt: hydrochloride) [Compound I-3, (E)-N-((2-Chlorophenyl)(piperazin-1-yl)methylene)-1-phenylmethanaminehydrochloride] | 142 to 144 |  |  |
| Clc1cccc(/C(=N\Cc2ccccc2)N2CCNCC2)c1 (as salt: hydrochloride) [Compound I-4, (E)-N-((3-Chlorophenyl)(piperazin-1-yl)methylene)-1-phenylmethanaminehydrochloride] | 235 to 237 |  |  |
| Clc1ccc(/C(=N\Cc2ccccc2)N2CCNCC2)cc1 (as salt: hydrochloride) [Compound I-5, (E)-N-((4-Chlorophenyl)(piperazin-1-yl)methylene)-1-phenylmethanaminehydrochloride] | 182 to 184 |  |  |
| Fc1ccc(/C(=N\Cc2ccccc2)N2CCNCC2)cc1 (as salt: hydrochloride) [Compound I-6, (E)-N-((4-Fluorophenyl)(piperazin-1-yl)methylene)-1-phenylmethanaminehydrochloride] | 220 to 222 |  |  |
| O=[N+]([O-])c1ccc(/C(=N\Cc2ccccc2)N2CCNCC2)cc1 [Compound I-2, (E)-N-((4-Nitrophenyl)(piperazin-1-yl)methylene)-1-phenylmethanaminehydrochloride] |  | 66 | 38 |
| Clc1ccccc1/C(=N\Cc1ccccc1)N1CCNCC1 [Compound I-3, (E)-N-((2-Chlorophenyl)(piperazin-1-yl)methylene)-1-phenylmethanaminehydrochloride] |  | 65 | 48 |
| Clc1cccc(/C(=N\Cc2ccccc2)N2CCNCC2)c1 [Compound I-4, (E)-N-((3-Chlorophenyl)(piperazin-1-yl)methylene)-1-phenylmethanaminehydrochloride] |  | 63 | 58 |
| Clc1ccc(/C(=N\Cc2ccccc2)N2CCNCC2)cc1 [Compound I-5, (E)-N-((4-Chlorophenyl)(piperazin-1-yl)methylene)-1-phenylmethanaminehydrochloride] |  | 57 | 47 |
| Fc1ccc(/C(=N\Cc2ccccc2)N2CCNCC2)cc1 [Compound I-6, (E)-N-((4-Fluorophenyl)(piperazin-1-yl)methylene)-1-phenylmethanaminehydrochloride] |  | 39 | 17 |
| Fc1ccccc1/C(=N\Cc1ccccc1)N1CCNCC1 [Compound I-7, (E)-N-((2-Fluorophenyl)(piperazin-1-yl)methylene)-1-phenylmethanaminehydrochloride] |  | 35 | 38 |
| N#Cc1ccc(/C(=N\Cc2ccccc2)N2CCNCC2)cc1 [Compound I-8, (E)-4-((Benzylimino)(piperazin-1-yl)methyl)benzonitrilehydrochloride] |  | 67 | 54 |
| N#Cc1cccc(/C(=N\Cc2ccccc2)N2CCNCC2)c1 [Compound I-9, (E)-3-((Benzylimino)(piperazin-1-yl)methyl)benzonitrilehydrochloride] |  | 51 | 65 |
| Cc1ccc(/C(=N\Cc2ccccc2)N2CCNCC2)cc1 [Compound I-10, (E)-1-Phenyl-N-(piperazin-1-yl(p-tolyl)methylene)methanaminehydrochloride] |  | 47 | 61 |
| O=[N+]([O-])c1ccc(/C(=N\Cc2ccccc2)N2CCNCC2)c(Cl)c1 [Compound I-11, (E)-N-((2-Chloro-4-nitrophenyl)(piperazin-1-yl)methylene)-1-phenylmethanaminehydrochloride] |  | 49 | 50 |
| O=[N+]([O-])c1ccc(/C(=N\Cc2ccc(Cl)cc2)N2CCNCC2)cc1 [Compound I-12, (E)-1-(4-Chlorophenyl)-N-((4-nitrophenyl)(piperazin-1-yl)methylene)methanaminehydrochloride] |  | 81 | 51 |
| Clc1ccc(C/N=C(\c2ccccc2Cl)N2CCNCC2)cc1 [Compound I-13, (E)-1-(4-Chlorophenyl)-N-((2-chlorophenyl)(piperazin-1-yl)methylene)methanaminehydrochloride] |  | 84 | 67 |

| SMILES | melting point [°C] | inhibition at 10 µM [1] [%] | inhibition at 10 µM [2] [%] |
| --- | --- | --- | --- |
| Clc1ccc(C/N=C(\c2cccc(Cl)c2)N2CCNCC2)cc1 [Compound I-14, (E)-1-(4-Chlorophenyl)-N-((3-chlorophenyl)(piperazin-1-yl)methylene)methanaminehydrochloride] |  | 60 | 76 |
| Clc1ccc(C/N=C(\c2ccc(Cl)cc2)N2CCNCC2)cc1 [Compound I-15, (E)-1-(4-Chlorophenyl)-N-((4-chlorophenyl)(piperazin-1-yl)methylene)methanaminehydrochloride] |  | 68 | 48 |
| Fc1ccc(/C(=N\Cc2ccc(Cl)cc2)N2CCNCC2)cc1 [Compound I-16, (E)-1-(4-Chlorophenyl)-N-((4-fluorophenyl)(piperazin-1-yl)methylene)methanaminehydrochloride] |  | 26 | 45 |
| Fc1ccccc1/C(=N\Cc1ccc(Cl)cc1)N1CCNCC1 [Compound I-17, (E)-1-(4-Chlorophenyl)-N-((2-fluorophenyl)(piperazin-1-yl)methylene)methanaminehydrochloride] |  | 27 | 43 |
| N#Cc1ccc(/C(=N\Cc2ccc(Cl)cc2)N2CCNCC2)cc1 [Compound I-18, (E)-1-(4-Chlorophenyl)-N-((4-cyanophenyl)(piperazin-1-yl)methylene)methanaminehydrochloride] |  | 63 | 75 |
| Cc1ccc(/C(=N\Cc2ccc(Cl)cc2)N2CCNCC2)cc1 [Compound I-20, (E)-1-(4-Chlorophenyl)-N-(piperazin-1-yl(p-tolyl)methylene)methanaminehydrochloride] |  | 35 | 72 |
| COc1ccc(C/N=C(\c2ccc([N+](=O)[O-])cc2)N2CCNCC2)cc1 [Compound I-21, (E)-1-(4-Methoxyphenyl)-N-((4-nitrophenyl)(piperazin-1-yl)methylene)methanaminehydrochloride] |  | 57 | 34 |
| c1ccc(/C(=N\Cc2cccc3ccccc23)N2CCNCC2)cc1 [II-1, (E)-1-(Naphthalen-1-yl)-N-(phenyl(piperazin-1-yl)methylene)methanaminehydrochloride] |  | 67 | 80 |
| O=[N+]([O-])c1ccc(/C(=N\Cc2cccc3ccccc23)N2CCNCC2)cc1 [II-2, (E)-1-(Naphthalen-1-yl)-N-((4-nitrophenyl)(piperazin-1-yl)methylene)methanaminehydrochloride] |  | 52 | 57 |
| Fc1ccc(/C(=N\Cc2cccc3ccccc23)N2CCNCC2)cc1 [II-3, (E)-N-((4-Fluorophenyl)(piperazin-1-yl)methylene)-1-(naphthalen-1-yl)methanaminehydrochloride] |  | 76 | 84 |
| Clc1cccc(/C(=N\Cc2cccc3ccccc23)N2CCNCC2)c1 [II-6, (E)-N-((3-Chlorophenyl)(piperazin-1-yl)methylene)-1-(naphthalen-1-yl)methanaminehydrochloride] |  | 75 | 65 |
| Clc1ccc(/C(=N\Cc2cccc3ccccc23)N2CCNCC2)cc1 [II-7, (E)-N-((4-Chlorophenyl)(piperazin-1-yl)methylene)-1-(naphthalen-1-yl)methanaminehydrochloride] |  | 59 | 62 |
| N#Cc1ccc(/C(=N\Cc2cccc3ccccc23)N2CCNCC2)cc1 [II-8, (E)-4-(((Naphthalen-1-ylmethyl)imino)(piperazin-1-yl)methyl)benzonitrilehydrochloride] |  | 46 | 70 |
| N#Cc1cccc(/C(=N\Cc2cccc3ccccc23)N2CCNCC2)c1 [II-9, (E)-3-(((Naphthalen-1-ylmethyl)imino)(piperazin-1-yl)methyl)benzonitrilehydrochloride] |  | 54 | 88 |
| Cc1ccc(/C(=N\Cc2cccc3ccccc23)N2CCNCC2)cc1 [II-10, (E)-1-(Naphthalen-1-yl)-N-(piperazin-1-yl(p-tolyl)methylene)methanaminehydrochloride] |  | 63 | 82 |
| O=[N+]([O-])c1cccc2c(/C(=N\Cc3ccccc3)N3CCNCC3)cccc12 [III-1, (E)-N-((5-Nitronaphthalen-1-yl)(piperazin-1-yl)methylene)-1-phenylmethanaminehydrochloride] |  | 66 | 73 |
